These results are taken from patent publication US20030216569A1, “Method of making HIV protease inhibitors” (priority 1993, published 2003).

Structures can show the parent of a compound that is named as a salt. Where two headings read alike, the source gives them in different places. Marks after values point to notes of the source that are not given here.

Assay [1] relates to Viral SN123 infected CEM cells.
Protocol: Purpose: To determine IC50 CC50 for compounds:
Media A [1% DMSO] (100 microliters DMSO+9.9 ml media A)
CEM cells @ [1×10^4] cells/ml (4 plate=40 ml) (6 plate=60 ml)
(need 70 microliters of each)
A-D at [10 mM] in 100% DMSO
4 or 6 u-bottom 96-well plates
4 flat bottom 96-well plates for dilutions
8-10 boxes of sterile costar tips
Approximately 10 reagent trays
1000 cells/well=1×10^4 cells/ml=1000 cells/100 microliters 200 microliters=total volume in a well
Cell Preparation and Plating of Cells, Media A and Media A (1% DMSO)
a. Number a 96-well tissue culture plate for each compound tested, one for a control plate, and one for the control compound.
b. Count cells on hemacytometer and resuspend them in 40 ml or 80 ml of Media A at a concentration of [1×10^4]0 cells/ml.
Counting Cells on a Hemacytomer:
Label two 1.8 ml nuc tubes 1 and 2.
Put 0.5 ml of well mixed CEM cells (in growth phase) in tube 1.
Put 50 micoliters PBS and 40 microliters of trypan blue into tube 2.
Mix up the cells in tube 1 then remove 10 microliters of cells and put them into tube 2.
Mix well in tube 2, then remove 10 microliters of the stained cells and put them on the hemacytometer.
Count the number of cells in the center square of the hemacytometer with the microscope set on 10×.
The concentration of the stock CEM's in cells/ml is as follows:
Cells counted×1×10^5=Concentration of CEM's in [cells/ml].
c. Add 200 microliters Media A to: A1 of places 2-6. These are Blanks. A4-H4 of plate 1. These are Blanks.
d. Add 5 microlicers Media A to all wells of Rows A-D of plates 2-6 except A1 (the top half of each plate).
e. Add 50 microliters of Media A to wells A1-D3 of Plate 1 (the top half of the plate).
f. Add 50 microliters Media A[l% DMSO] to all wells of Columns 1-3 of plate 1.
This puts 1000 cells/well.
h. Put plates in an incubator while doing drug dilutions.
Preparation Control and Test Drugs
(1) Put 60 microliters of DMSO into all wells of Columns 2-12, Rows A-E.
(3) Put 70 microliters of A [10 mM] at 100% DMSO into well B1.
(4) Put 70 microliters of B [10 mM] at 100% DMSO into well C1.
(5) Put 70 microliters of C [10 mM] at 100% DMSO into well D1.
(6) Put 70 microliters of D [10 mM] at 100% DMSO into well E1.
Change tips before each dilution.
(1) In rows A-E of another plate make a row for the first 1:10 dilution to correspond to each compound's 100% DMSO row.
A into Row B for the first 1:10 dilution.
B into Row C for the first 1:10 dilution.
C into Row D for the first 1:10 dilution.
D into Row E for the first 1:10 dilution.
(2) Put 180 microliters of media A into all wells of rows A-E corresponding to the 100% DMSO rows. 2.5 ml needed per row.
(3) Remove 20 microliters from all wells of each row of the 100% DMSO rows and transfer it to the corresponding 1:10 row.
(1) Make a plate for every 3 compounds to be tested.
Use 20 ml of media A per plate.
(3) Transfer 25 microliters of each compound from the row in the 1:10 dilution to the corresponding two rows on the 1:100 dilution plate changing tips before each transfer.
Addition of Viral SN123 to Plates
a. Thaw Sn123 in 37° C. water bath for approximately 10 minutes.
b. Dilute Sn123 1:16 by adding 1 ml of Sn123 to 15 ml of media A.
c. Add 50 microliters of Sn123 [1:16] to wells E1-H12 of plates 2-6 and to wells E1-H3 of plate 1.
Addition of Drugs to Plates
a. Add 50 microliters of the control and test drugs from the rows in the 1:100 dilution plates to the appropriate rows in the final plates (changing tips before each transfer). One row in the 1:100 plate will do 4 rows in the final plate. Leave A1 blank.
b. Incubate all plates 7 days at 37° C. 5% CO2.
c. Do Xtt protocol on day 7 as follows:
d. Preparation of Xtt/PMS Solution: (4 plate=20 ml) (6 plate=30 ml)
100 microliters [100 mM] PMS+4.9 ml PBS=PMS at [2 mM]
(2) Heat 500 ml of H2O in microwave for 5 minutes on high.
(3) Put 20 or 30 ml of phenol red RPMI in a 50 ml centrifuge tube.
(4) Put the RPMI in the beaker of hot water.
(5) Add 20 or 30 mg of XTT to the warmed up RPMI.
In assay [2] the target is HIV-1 protease (Human immunodeficiency virus type 1 group M subtype B, UniProt P04585). Briefly: Fluorescence HIV-1 Protease Inhibitor Assay (Pandex). Type of assay: biochemical. Further details: made in house; host or cells: E. coli K12 L507/pHP10D (NRRL B-18560). On the procedure:
A. Preparation of Protease and Gag Fractions
Lyophils of E. coli K12 L507/pHP10D were obtained from the Northern Regional Research Laboratory, Peoria, Ill. 61604, under the accession number NRRL B-18560 (deposited Nov. 14, 1989). The lyophils were decanted into tubes containing 10 ml LB medium (10 g Bacto-tryptone, 5 g Bacto-yeast extract, and 10 g aqueous sodium chloride per liter; the pH was adjusted to 7.5 and incubated at 32° C. overnight).
A small portion of the overnight culture was placed on LB-agar (LB medium with 15 g/L Bacto-agar) plates containing 12.5 micrograms/ml tetracycline in a manner so as to obtain a single colony isolate of E. coli K12 L507/pHP10D. The single colony obtained was inoculated into 10 ml of LB medium containing 12.5 micrograms/ml tetracycline and incubated overnight at 32° C. with vigorous shaking. The 10 ml overnight culture was inoculated into LB medium containing 12.5 micrograms/ml tetracycline and incubated at 32° C. with vigorous shaking until the culture reached mid-log phase. […]
3. Preparation of Protease Fraction
A culture of E. coli K12 L507/pHP10D was grown to mid-log phase at 32° C. in LB media containing 12.5 micrograms/ml tetracycline. The cultivation temperature was quickly elevated to 40° C. to induce gene expression, and the cells were allowed to grow for 2.5 hours at this temperature before the culture was quickly chilled on ice. The cells were centrifuged and the cell pellet was resuspended in 20 ml of 50 mmol MES buffer (pH 6.0) containing 1 mmol EDTA, 1 mmol DTT, 1 mmol PMSF and 10% glycerol (“Buffer A”). Cells were lysed by sonication using a Fischer Model 300 Dismembrator and a microtip probe. Following centrifugation at 27,000×g, the supernatant was diluted to a total volume of 60 ml with Buffer A and loaded onto a 2.0×19 cm QAE-Sepharose column (1 ml/min, 4° C.), that had been equilibrated in Buffer A. The column was washed isocratically for 180 min and then eluted with a gradient eluent of […] aqueous sodium chloride in Buffer A over 120 min. Enzymatic activity was measured by HPLC using the synthetic peptide Ser-Gln-Asn-Tyr-Pro-Ile-Val as described in Margolin et al., Biochem. Biophys. Res. Commun., 167, 554-560 (1990); the production of the p1 peptide (Ser-Gln-Asn-Tyr) was measured.
The active fractions were combined, adjusted to […] 1.2M in ammonium sulfate, and applied to a 2.0×18 cm hexyl agarose column that had been equilibrated in Buffer A containing 1.2M ammonium sulfate. The sample was loaded at a flow rate of 1 ml/min at 4° C., washed with the equilibration buffer for 240 min (1 ml/min) and then eluted using a reverse linear gradient of 1.2-0M ammonium sulfate in Buffer A for 120 min at the same flow rate. The column was then washed isocratically in Buffer A for 120 min.
The active fractions were combined, concentrated to 10 ml using an Amicon stirred cell with a YM-10 membrane and then applied to a MonoS cation exchange column (1.0×10 cm) that had been equilibrated in Buffer A. The sample was loaded at a flow rate of 1 ml/min at 25° C. After washing isocratically for 30 min, the protease was eluted using a linear gradient of 0-0.45M aqueous sodium chloride in Buffer A over 40 min. The column was washed isocratically in Buffer A containing 0.45M aqueous sodium chloride for 30 minutes.
The active fractions were combined and concentrated to 200 microliters using an Amicon stirred cell and a YM-10 membrane and then the protease was applied to a Superose 6 size exclusion column equilibrated in Buffer A containing 0.1M aqueous sodium chloride.

The mark [3] stands for this setting: value as run, 35B value of the same run in footnote or parentheses, read-out: Pandex IC50 ng/ml (converted).
Setting [4] is: value as run, 35B value of the same run in footnote or parentheses.
[5] abbreviates: normalized to positive control (=1.0), * = a calculated average, read-out: Fluorescence Assay IC50 in ng/mL (converted).

In the case of `Cc1c(O)cccc1C(=O)N[C@@H](CSc1ccccc1)[C@H](O)CN1C[C@H]2CCCC[C@H]2C[C@H]1C(=O)NC(C)(C)C` (relative stereo) [Example 75, [3S-(3R*, 4aR*, 8aR*, 2′S*, 3′S*)]-2-[2′-Hydroxy-3′-phenylthiomethyl-4′-aza-5′-oxo-5′-(2″-methyl-3″-hydroxyphenyl)pentyl]-decahydroisoquinoline-3-N-t-butyl carboxamide methanesulfonic acid salt], the IC50 in assay [1] (Human immunodeficiency virus 1, CCRF-CEM, read-out: Whole cell IC50 nM, CEM cells, values in parentheses are 35B in same assay) turned out to be 14.5 nM. In addition, the IC90 in assay [1] (Human immunodeficiency virus 1, CCRF-CEM, read-out: Whole cell IC90 nM, CEM cells, values in parentheses are 35B in same assay) was 56.1 nM.

As for `CC(C)(C)NC(=O)[C@@H]1C[C@@H]2CCCC[C@@H]2CN1C[C@@H](O)[C@H](Cc1ccccc1)NC(=O)c1ccsc1` (relative stereo) [Example 87, [3S-(3R*, 4aR*, 8aR*, 2′S*, 3′R*)]-2-[2′-Hydroxy-3′-phenylmethyl-4′-aza-5′-oxo-5′-(thieno-3″-yl)pentyl]-decahydroisoquinoline-3-N-t-butyl carboxamide], the “Pandex IC50 (given as % at concentration)” value in assay [2] (at 1,000 ng/ml) amounted to 25%.

On to `CC(C)(C)NC(=O)[C@@H]1C[C@@H]2CCCC[C@@H]2CN1C[C@@H](O)[C@H](Cc1ccccc1)NC(=O)C1CCS(=O)(=O)C1` (relative stereo) [Example 88, [3S-(3R*, 4aR*, 8aR*, 2′S*, 3′R*)]-2-[2′-Hydroxy-3′-phenylmethyl-4′-aza-5′-oxo-5′-(tetrahydrothieno-3″-yl-1″,1″-dioxide)pentyl]-decahydroisoquinoline-3-N-t-butyl carboxamide], for which the “Pandex % at 20 ng/ml” value in assay [2] (at 20 ng/ml) is given as 28%.

Take `Cc1ccsc1C(=O)N[C@@H](CSc1ccccc1)[C@H](O)CN1C[C@H]2CCCC[C@H]2C[C@H]1C(=O)NC(C)(C)C` (relative stereo) [Example 90, [3S-(3R*, 4aR*, 8aR*, 2′S*, 3′S*)]-2-[2′-Hydroxy-3′-phenylthiomethyl-4′-aza-5′-oxo-5′-(3″-methyl-thieno-2″-yl)pentyl]-decahydroisoquinoline-3-N-t-butyl carboxamide]: the IC50 in assay [2] (setting [3]) was 48.4 nM.

With `CC(C)(C)NC(=O)[C@@H]1C[C@@H]2CCCC[C@@H]2CN1C[C@@H](O)[C@H](CSc1ccccc1)NC(=O)[C@H]1CS(=O)(=O)CN1` (relative stereo) [[3S-(3R*, 4aR*, 8aR*, 2′S*, 3′S*, 4″S)]-2-[2′-Hydroxy-3′-phenylthiomethyl-4′-aza-5′-oxo-5′-(thiazolino-4″-yl-1″,1″-dioxide)pentyl]-decahydroisoquinoline-3-N-t-butyl carboxamide], in assay [2] (setting [4]), the “Pandex IC50” value amounted to 0.244 µg/mL.

As to `CC(C)(C)NC(=O)C1CC2CCCCC2CN1CC(O)C(Cc1ccccc1)NC(=O)c1cc(O)cc(O)c1Cl` (stereo not drawn) [Example 8, [3S-(3R*,4aR*,8aR*,2′S*,3′R*)]-2-[2′-Hydroxy-3′-phenylmethyl-4′-aza-5′-oxo-5′-(2″-chloro-3″,5″-dihydroxyphenyl)pentyl] decahydroisoquinoline-3-N-t-butylcarboxamide], the values for the IC50 in assay [2] (setting [5]) and in assay [2] (setting [3]) were 28.7 nM and 10.1 nM, respectively.

As for `Cc1c(N)cc(N)cc1C(=O)NC(Cc1ccccc1)C(O)CN1CC2CCCCC2CC1C(=O)NC(C)(C)C` (stereo not drawn) [Example 9, [3S-(3R*,4aR*,8aR*,2′S*,3′R*)]-2-[2′-Hydroxy-3′-phenylmethyl-4′-aza-5′-oxo-5′-(2″-methyl-3″,5″-diaminophenyl)pentyl] decahydroisoquinoline-3N-t-butylcarboxamide], the figures for the IC50 in assay [2] (setting [5]) and in assay [2] (setting [3]) were 30.9 nM and 95.9 nM, respectively.

For the compound `COc1cccc(C(=O)NC(Cc2ccccc2)C(O)CN2CC3CCCCC3CC2C(=O)NC(C)(C)C)c1C` (stereo not drawn) [Example 13, [3S-(3R*,4aR*,8aR*,2′S*,3′R*)]-2-[2′-Hydroxy-3′-phenylmethyl-4′-aza-5′-oxo-5′-(2″-methyl-3″-methoxyphenyl)pentyl] decahydroisoquinoline-3-N-t-butylcarboxamide], the IC50 in assay [2] (setting [5]) is 629 nM.

Take `Cc1c(O)cccc1C(=O)NC(Cc1ccccc1)C(O)CN1CC2CCCCC2CC1C(=O)NC(C)(C)C` (stereo not drawn) [Example 28, [3S-(3R*,4aR*,8aR*,2′S*,3′R*)]-2-[2′-Hydroxy-3′-phenylmethyl-4′-aza-5′-oxo-5′-(2″-methyl-3″-hydroxyphenyl)pentyl] decahydroisoquinoline-3-N-t-butylcarboxamide monomesylplate salt]: the IC50 in assay [1] (read-out: Whole cell IC50 nM, CEM cells, tested as the mesylate salt) is 35.7 nM. In addition, the IC90 in assay [1] (read-out: Whole cell IC90 nM, CEM cells, tested as the mesylate salt) was determined as 91.8 nM.

With `CC(C)(C)NC(=O)C1CC2CCCCC2CN1CC(O)C(Cc1ccccc1)NC(=O)c1cccc2c1CCCN2` (stereo not drawn) [Example 37, [3S-(3R*,4aR*,8aR*,2′S*,3′S*)]-2-[2′-Hydroxy-3′-phenylmethyl-4′-aza-5′-oxo-5′-[(1″,2″,3″,4″-tetrahydroquinolin-5″-yl)]pentyl] decahydroisoquinoline-3-N-y-butylcarboxamide], the IC50 in assay [2] (setting [5]) is 49 nM; in assay [2] (setting [3]) it was 58.8 nM.

On to `Cc1ccc(O)c(C)c1C(=O)NC(CSc1ccccc1)C(O)CN1CC2CCCCC2CC1C(=O)NC(C)(C)C` (stereo not drawn) [Example 39, [3S-(3R*,4aR*,8aR*,2′S*,3′S*)]-2-[2′-Hydroxy-3′-phenylthiomethyl-4′-aza-5′-oxo-5′-[2″,6″-dimethyl-3″-hydroxyphenyl)pentyl] decahydroisoquinoline-3-N-t-butylcarboxamide], for which the results for the IC50 in assay [2] (setting [5]) and in assay [2] (setting [3]) were 9.11 nM and 13.7 nM, respectively.

In the case of `Cc1c(O)cccc1C(=O)N[C@@H](Cc1ccccc1)[C@H](O)Cc1ccccc1C(=O)NC(C)(C)C` [Example 40, [2R′-(2R′*,3′S*)]-N-t-Butyl-2-[2′-hydroxy-3′-phenylmethyl-4′-aza-5′-oxo-5′-(2″methyl-3″-hydroxyphenyl)pentyl]benzamide], in assay [2] (setting [5]), the IC50 is 21.1 nM.

Regarding `CC(C)(C)NC(=O)c1ccccc1CC(O)C(CSc1ccc2ccccc2c1)NC(=O)c1cccc(Cl)c1Cl` (stereo not drawn) [Example 54, [2′R-(2′R*,3′S*)]-N-t-Butyl-2-[2′-hydroxy-3′-naphth-2-ylthiomethyl-4′-aza-5′-oxo-5′-(2″,2″-dichlorophenyl)pentyl] benzamide], the IC50 in assay [2] (setting [5]) is 129 nM.

With `CC(C)(C)NC(=O)c1ccccc1C[C@@H](O)[C@H](Cc1ccccc1)NC(=O)c1cccc2c1CCNC2` [Example 60, [2′R-(2′R*,3′S*)]-N-t-Butyl-2-[2′-hydroxy-3′-phenylmethyl-4′-aza-5′-oxo-5′-(1″,2″,3″,4″-tetrahydroisoquinolin-5″-yl)pentyl] benzamide], in assay [2] (setting [5]), the IC50 is 801 nM.

For “[2′R-(2′R*,3′S*)]-N-t-Butyl-2-[2′-hydroxy-3′-naphth-2-ylthiomethyl-4′-aza-5′-oxo-5′-(1″-N(methyl)indol-4″-yl)pentyl] benzamide [Example 69]”, in assay [2] (concentration of the inhibitor not increased above 15 μg/mL), the “Fluorescence Assay IC35” value is “IC35(15000)** ng/mL”.

For “[3S-(3R*,4aR*,8aR*,2′S*,3′S*)]-2-[2′-Hydroxy-3′-phenylthiomethyl-4′-aza-5′-oxo-5′-[6″-methyl-(1″,2″,3″,4″-tetrahydroquinolin-5″-yl)]pentyl] decahydroisoquinoline-3-N-t-butylcarboxamide [Example 38]”, the “Fluorescence Assay IC50” value in assay [2] (normalized to positive control (=1.0), * = a calculated average) was 0.0152 µg/mL. For the same compound, in assay [2] (setting [4]), the “Pandex IC50 ng/ml” value was 35^e ng/ml.
